According to patent publication US7157432B2, “Tetraphenylbacteriochlorin derivatives and compositions containing the same” (San-Ei Gen F.F.I., Inc., priority 2000, dated 2007):

Test system: HeLa cells
Experiment: Phototoxicity test (MTT assay, viability of HeLa cells after irradiation)
Assay type: cell-based
Conditions: test compound 5 or 10 μM for two hours, 500 W halogen lamp with filter cutting off light shorter than 500 nm for 8 minutes, MTT after 24 hours
Description: Each of Compounds 1 to 16 was evaluated about its cytotoxicity by viability of HeLa cells using MTT assay (Carmichal, J., W. G. DeGraff, A. F. Gazdar, J. D. Minna and J. B. Mitchell, Cancer Res., 1987, 47, 936–942). HeLa cells (1×10^4 cells/well) were incubated in Dulbecco's modified Eagle's medium (DMEM) containing 10% fetal bovine serum (FBS) on a 96-well plate in 5% CO2 at 37° C. for 24 hours. After washing with phosphate buffered saline (PBS), the cells were incubated in DMEM without serum in the presence of each of the compounds to be tested (5 or 10 μM) for two hours. The cells were washed with PBS and irradiated with a 500 W halogen lamp equipped with a filter cutting off the light shorter than 500 nm wave length for 8 minutes. After 24 hours' incubation, the viability was measured by the MTT assay. HeLa cells without test compound were used as a control. […] The survival ratio of the cells is calculated by the following formula: Cell survival ratio (%)=(OD540 in presence of test compound with irradiation/OD540 in presence of test compound without irradiation)×100. A cell survival ratio of 100% means the absence of cytotoxicity.

SMILES | cytotoxicity when irradiated with light (cell survival ratio, FIG. 2)
OC[C@H]1O[C@@H](Oc2cccc(-c3c4nc(c(-c5cccc(O[C@@H]6O[C@H](CO)[C@@H](O)[C@H](O)[C@H]6O)c5)c5ccc([nH]5)c(-c5cccc(O[C@@H]6O[C@H](CO)[C@@H](O)[C@H](O)[C@H]6O)c5)c5nc(c(-c6cccc(O[C@@H]7O[C@H](CO)[C@@H](O)[C@H](O)[C@H]7O)c6)c6ccc3[nH]6)CC5)CC4)c2)[C@H](O)[C@@H](O)[C@@H]1O [Compound 10, 5,10,15,20-tetrakis[3-(β-D-glucopyranosyloxy)phenyl]-bacteriochlorin] | exhibited cytotoxicity
O[C@@H]1[C@H](Oc2cccc(-c3c4nc(c(-c5cccc(O[C@@H]6OC[C@@H](O)[C@@H](O)[C@@H]6O)c5)c5ccc([nH]5)c(-c5cccc(O[C@@H]6OC[C@@H](O)[C@@H](O)[C@@H]6O)c5)c5nc(c(-c6cccc(O[C@@H]7OC[C@@H](O)[C@@H](O)[C@@H]7O)c6)c6ccc3[nH]6)CC5)CC4)c2)OC[C@@H](O)[C@H]1O [Compound 14, 5,10,15,20-tetrakis[3-(β-D-arabinopyranosyloxy)phenyl]-bacteriochlorin] | exhibited cytotoxicity
O[C@@H]1[C@@H](O)[C@H](Oc2cccc(-c3c4nc(c(-c5cccc(O[C@@H]6OC[C@@H](O)[C@H](O)[C@H]6O)c5)c5ccc([nH]5)c(-c5cccc(O[C@@H]6OC[C@@H](O)[C@H](O)[C@H]6O)c5)c5nc(c(-c6cccc(O[C@@H]7OC[C@@H](O)[C@H](O)[C@H]7O)c6)c6ccc3[nH]6)CC5)CC4)c2)OC[C@H]1O [Compound 16, 5,10,15,20-tetrakis[3-(β-D-xylopyranosyloxy)phenyl]bacteriochlorin] | exhibited cytotoxicity

Test system: not listed separately
Experiment: UV absorption in DMSO at 20° C.
Assay type: physicochemical
Conditions: FIG. 1
Text: As clearly shown in FIG. 1, the compounds of the present invention have a strong UV absorption peak around 740 nm. Compounds 3 to 8 and 11 to 16 show an UV absorption pattern similar to that of tetraphenylbacteriochlorin and also have a strong UV absorption peak around 740 nm.

SMILES | strong UV absorption peak
CC(=O)OC[C@H]1O[C@@H](Oc2ccc(-c3c4nc(c(-c5ccc(O[C@@H]6O[C@H](COC(C)=O)[C@@H](OC(C)=O)[C@H](OC(C)=O)[C@H]6OC(C)=O)cc5)c5ccc([nH]5)c(-c5ccc(O[C@@H]6O[C@H](COC(C)=O)[C@@H](OC(C)=O)[C@H](OC(C)=O)[C@H]6OC(C)=O)cc5)c5nc(c(-c6ccc(O[C@@H]7O[C@H](COC(C)=O)[C@@H](OC(C)=O)[C@H](OC(C)=O)[C@H]7OC(C)=O)cc6)c6ccc3[nH]6)CC5)CC4)cc2)[C@H](OC(C)=O)[C@@H](OC(C)=O)[C@@H]1OC(C)=O [Compound 1, 5,10,15,20-tetrakis[4-(2′,3′,4′,6′-tetra-O-acetyl-β-D-glucopyranosyloxy)phenyl]bacteriochlorin] | around 740 nm
CC(=O)OC[C@H]1O[C@@H](Oc2cccc(-c3c4nc(c(-c5cccc(O[C@@H]6O[C@H](COC(C)=O)[C@@H](OC(C)=O)[C@H](OC(C)=O)[C@H]6OC(C)=O)c5)c5ccc([nH]5)c(-c5cccc(O[C@@H]6O[C@H](COC(C)=O)[C@@H](OC(C)=O)[C@H](OC(C)=O)[C@H]6OC(C)=O)c5)c5nc(c(-c6cccc(O[C@@H]7O[C@H](COC(C)=O)[C@@H](OC(C)=O)[C@H](OC(C)=O)[C@H]7OC(C)=O)c6)c6ccc3[nH]6)CC5)CC4)c2)[C@H](OC(C)=O)[C@@H](OC(C)=O)[C@@H]1OC(C)=O [Compound 2, 5,10,15,20-tetrakis[3-(2′,3′,4′,6′-tetra-O-acetyl-β-D-glucopyranosyloxy)phenyl]bacteriochlorin] | around 740 nm
OC[C@H]1O[C@@H](Oc2ccc(-c3c4nc(c(-c5ccc(O[C@@H]6O[C@H](CO)[C@@H](O)[C@H](O)[C@H]6O)cc5)c5ccc([nH]5)c(-c5ccc(O[C@@H]6O[C@H](CO)[C@@H](O)[C@H](O)[C@H]6O)cc5)c5nc(c(-c6ccc(O[C@@H]7O[C@H](CO)[C@@H](O)[C@H](O)[C@H]7O)cc6)c6ccc3[nH]6)CC5)CC4)cc2)[C@H](O)[C@@H](O)[C@@H]1O [Compound 9, 5,10,15,20-tetrakis[4-(β-D-glucopyranosyloxy)phenyl]-bacteriochlorin] | around 740 nm
OC[C@H]1O[C@@H](Oc2cccc(-c3c4nc(c(-c5cccc(O[C@@H]6O[C@H](CO)[C@@H](O)[C@H](O)[C@H]6O)c5)c5ccc([nH]5)c(-c5cccc(O[C@@H]6O[C@H](CO)[C@@H](O)[C@H](O)[C@H]6O)c5)c5nc(c(-c6cccc(O[C@@H]7O[C@H](CO)[C@@H](O)[C@H](O)[C@H]7O)c6)c6ccc3[nH]6)CC5)CC4)c2)[C@H](O)[C@@H](O)[C@@H]1O [Compound 10, 5,10,15,20-tetrakis[3-(β-D-glucopyranosyloxy)phenyl]-bacteriochlorin] | around 740 nm
